From patent US8198273B2, “Compounds and methods for kinase modulation, and indications therefor” (Plexxikon Inc., priority 2009, dated 2012)

Tests used:
[1] = target: T1, A-Raf (Homo sapiens, UniProt P10398); assay: A-Raf biochemical kinase inhibition (AlphaScreen, biotin-MEK1 substrate); conditions: 100 μM ATP
T1 sequence (P10398 1-606): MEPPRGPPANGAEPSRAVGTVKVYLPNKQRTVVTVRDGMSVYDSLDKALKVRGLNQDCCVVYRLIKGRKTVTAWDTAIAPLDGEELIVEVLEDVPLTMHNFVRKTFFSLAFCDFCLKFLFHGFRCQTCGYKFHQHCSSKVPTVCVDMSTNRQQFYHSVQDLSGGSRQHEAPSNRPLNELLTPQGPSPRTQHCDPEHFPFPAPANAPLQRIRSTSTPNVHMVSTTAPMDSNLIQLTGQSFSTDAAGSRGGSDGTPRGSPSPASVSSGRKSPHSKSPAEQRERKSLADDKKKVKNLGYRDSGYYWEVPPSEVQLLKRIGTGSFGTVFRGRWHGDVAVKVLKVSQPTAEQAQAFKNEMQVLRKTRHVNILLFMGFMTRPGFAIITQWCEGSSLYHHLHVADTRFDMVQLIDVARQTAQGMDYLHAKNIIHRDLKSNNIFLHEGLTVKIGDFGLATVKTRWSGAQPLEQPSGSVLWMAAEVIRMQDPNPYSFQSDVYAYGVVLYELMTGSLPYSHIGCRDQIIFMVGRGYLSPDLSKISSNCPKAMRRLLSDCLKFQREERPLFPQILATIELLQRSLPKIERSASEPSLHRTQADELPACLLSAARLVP
In short: (§1)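 IC50 derived from AlphaScreen signal plotted against compound concentration. Final ATP 100 μM; 3 h incubation at room temperature. Eight-point 3-fold dilution series prepared from a 0.1 mM DMSO stock.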

[2] = target: B-Raf (Homo sapiens, UniProt P15056); assay: B-Raf biochemical kinase inhibition (AlphaScreen, biotin-MEK1 substrate); conditions: 100 μM ATP
In short: as §1

[3] = test system: Colo205 xenograft; assay: Colo205 xenograft mouse model, tumor growth inhibition; assay type: in vivo; conditions: COLO 205, 336 h, female nu/nu mice, 10 mg/kg daily for fourteen days
Description: Tumor growth is monitored to approximately 100 mg size, and mice are distributed to treatment groups such that the mean tumor burden within a group is within 10% of the overall mean tumor burden. […] Mice are observed daily, with tumor burden and body weights measured twice a week. Animals with tumor burden above 1500-2000 mg and any animals in moribund condition are euthanized. The average tumor growth of vehicle control group mice is compared to the average tumor growth of the test compound mice. Percent tumor growth inhibition is calculated as 100×[(tumor growth control-tumor growth test compound)/tumor growth control].

[4] = Relative solubility by turbidity in aqueous buffers of varying pH; assay type: physicochemical; conditions: for turbidity threshold (L, M, H) 7.4: HEPES pH 7.4; for turbidity threshold (L, M, H) 4.5: SIF pH 4.5; for turbidity threshold (L, M, H) 6.8: SIF pH 6.8; for turbidity threshold (L, M, H) 1.4: buffer pH 1.4 (SGF)
In short: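 Turbidity endpoint: concentration where optical density at 490, 535 and 650 nm exceeds 0.01, three-wavelength average used. Buffers at pH 1.5, 4.5, 6.8 and 7.4; DMSO serial dilutions of 25 mM stock spiked 1 μL into 99 μL buffer. Low <31.3, moderate 31.3–250, high >250 μM.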

[5] = target: CYP3A4(BFC) (Homo sapiens, UniProt P08684); assay: CYP3A4(BFC) inhibition (fluorescent substrate); assay type: in vitro ADME; conditions: read-out: Cyp IC50 3A4(BFC)
In short: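 Inhibition was followed as loss of fluorescent metabolite from a known substrate, with compound in co-factor mix as a 10-point 1:1 serial dilution (100 mM DMSO stock).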

B-Raf, sequence (P15056 whole entry): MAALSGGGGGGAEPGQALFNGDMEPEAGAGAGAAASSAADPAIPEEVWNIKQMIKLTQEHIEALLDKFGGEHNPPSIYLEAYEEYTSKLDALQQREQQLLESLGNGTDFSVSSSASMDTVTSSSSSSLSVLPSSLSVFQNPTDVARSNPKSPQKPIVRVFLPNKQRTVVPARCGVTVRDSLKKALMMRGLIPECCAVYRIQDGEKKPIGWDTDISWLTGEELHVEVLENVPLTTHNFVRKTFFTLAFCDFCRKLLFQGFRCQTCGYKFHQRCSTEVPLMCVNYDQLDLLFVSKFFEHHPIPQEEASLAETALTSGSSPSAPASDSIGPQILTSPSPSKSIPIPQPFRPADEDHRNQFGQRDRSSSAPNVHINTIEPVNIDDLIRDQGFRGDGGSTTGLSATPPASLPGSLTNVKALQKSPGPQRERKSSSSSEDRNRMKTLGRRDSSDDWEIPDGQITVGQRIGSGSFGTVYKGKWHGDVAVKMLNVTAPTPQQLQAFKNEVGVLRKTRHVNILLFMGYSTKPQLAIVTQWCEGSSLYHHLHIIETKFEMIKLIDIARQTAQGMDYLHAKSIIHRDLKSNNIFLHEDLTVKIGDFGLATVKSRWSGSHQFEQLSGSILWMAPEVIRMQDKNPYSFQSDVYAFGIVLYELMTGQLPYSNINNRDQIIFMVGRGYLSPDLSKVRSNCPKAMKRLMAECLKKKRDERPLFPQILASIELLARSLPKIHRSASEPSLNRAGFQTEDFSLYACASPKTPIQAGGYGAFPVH
CYP3A4(BFC), sequence (P08684 whole entry): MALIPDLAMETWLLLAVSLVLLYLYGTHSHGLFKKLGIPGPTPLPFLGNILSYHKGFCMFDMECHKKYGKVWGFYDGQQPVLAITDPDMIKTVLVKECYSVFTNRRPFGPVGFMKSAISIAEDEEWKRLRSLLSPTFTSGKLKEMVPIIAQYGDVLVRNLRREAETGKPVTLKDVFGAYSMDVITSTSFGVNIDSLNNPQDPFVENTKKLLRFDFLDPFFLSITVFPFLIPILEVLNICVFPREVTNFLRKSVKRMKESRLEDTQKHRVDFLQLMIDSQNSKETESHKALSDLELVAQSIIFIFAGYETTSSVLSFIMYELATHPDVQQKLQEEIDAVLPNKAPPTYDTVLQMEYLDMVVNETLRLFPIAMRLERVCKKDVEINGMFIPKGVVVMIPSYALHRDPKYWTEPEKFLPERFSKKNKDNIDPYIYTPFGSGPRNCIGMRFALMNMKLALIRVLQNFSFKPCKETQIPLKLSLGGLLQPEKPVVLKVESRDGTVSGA

Row | IC50 [1] | IC50 [2] | IC50 [5] | Compound | inhibition in vivo at 10 mg/kg [3] | turbidity threshold (L, M, H) 7.4 [4] | turbidity threshold (L, M, H) 4.5 [4] | turbidity threshold (L, M, H) 6.8 [4] | turbidity threshold (L, M, H) 1.4 [4]
1 | < 10 nM | < 100 nM | 5000 to 10000 nM | CCCS(=O)(=O)Nc1ccc(F)c(C(=O)c2c[nH]c3ncc(C#CCOC)cc23)c1F [P-2239, Propane-1-sulfonic acid {2,4-difluoro-3-[5-(3-methoxy-prop-1-ynyl)-1H-pyrrolo[2,3-b]pyridine-3-carbonyl]-phenyl}-amide] | 4% | M (moderate solubility if the threshold concentration is 31.3 μM to 250 μM) | M (moderate solubility if the threshold concentration is 31.3 μM to 250 μM) | L (low solubility if the threshold concentration is <31.3 04) | L (low solubility if the threshold concentration is <31.3 04)
2 | – | < 10 nM | > 10000 nM | CCCS(=O)(=O)Nc1ccc(F)c(C(=O)c2c[nH]c3ncc(-c4cnc(C)nc4)cc23)c1F [P-2211, Propane-1-sulfonic acid {2,4-difluoro-3-[5-(2-methyl-pyrimidin-5-yl)-1H-pyrrolo[2,3-b]pyridine-3-carbonyl]-phenyl}-amide] | 0% | M (moderate solubility if the threshold concentration is 31.3 μM to 250 μM) | M (moderate solubility if the threshold concentration is 31.3 μM to 250 μM) | M (moderate solubility if the threshold concentration is 31.3 μM to 250 μM) | M (moderate solubility if the threshold concentration is 31.3 μM to 250 μM)
3 | – | < 10 nM | > 10000 nM | CCCS(=O)(=O)Nc1ccc(F)c(C(=O)c2c[nH]c3ncc(-c4ccc(OCCCN(C)C)nc4)cc23)c1F [P-2178, Propane-1-sulfonic acid (3-{5-[6-(3-dimethylamino-propoxy)-pyridin-3-yl]-1H-pyrrolo[2,3-b]pyridine-3-carbonyl}-2,4-difluoro-phenyl)-amide] | 0% | L (low solubility if the threshold concentration is <31.3 04) | M (moderate solubility if the threshold concentration is 31.3 μM to 250 μM) | L (low solubility if the threshold concentration is <31.3 04) | H (high solubility if the threshold concentration is >250 μM)
4 | – | < 100 nM | 5000 to 10000 nM | CCCS(=O)(=O)Nc1ccc(F)c(C(=O)c2c[nH]c3ncc(-c4cncnc4)cc23)c1F [P-2162, Propane-1-sulfonic acid [2,4-difluoro-3-(5-pyrimidin-5-yl-1H-pyrrolo[2,3-b]pyridine-3-carbonyl)-phenyl]-amide] | 17% | M (moderate solubility if the threshold concentration is 31.3 μM to 250 μM) | M (moderate solubility if the threshold concentration is 31.3 μM to 250 μM) | M (moderate solubility if the threshold concentration is 31.3 μM to 250 μM) | M (moderate solubility if the threshold concentration is 31.3 μM to 250 μM)

The next lines start with the molecule.

Row | Compound | IC50 [1] | IC50 [2] | IC50 [5] | inhibition in vivo at 10 mg/kg [3] | turbidity threshold (L, M, H) 7.4 [4] | turbidity threshold (L, M, H) 4.5 [4] | turbidity threshold (L, M, H) 6.8 [4] | turbidity threshold (L, M, H) 1.4 [4]
5 | Cc1cnc2[nH]cc(C(=O)c3c(F)ccc(NS(=O)(=O)c4cc(F)ccc4F)c3F)c2c1 [P-2015, N-[2,4-Difluoro-3-(5-methyl-1H-pyrrolo[2,3-b]pyridine-3-carbonyl)-phenyl]-2,5-difluoro-benzenesulfonamide] | < 10 nM | < 100 nM | > 10000 nM | 67% | M (moderate solubility if the threshold concentration is 31.3 μM to 250 μM) | L (low solubility if the threshold concentration is <31.3 04) | M (moderate solubility if the threshold concentration is 31.3 μM to 250 μM) | M (moderate solubility if the threshold concentration is 31.3 μM to 250 μM)
6 | N#Cc1cnc2[nH]cc(C(=O)c3cccc(NS(=O)(=O)c4ccccc4)c3F)c2c1 [P-2056, N-[3-(5-Cyano-1H-pyrrolo[2,3-b]pyridine-3-carbonyl)-2-fluoro-phenyl]-benzenesulfonamide] | < 10 nM | < 100 nM | > 10000 nM | 66% | M (moderate solubility if the threshold concentration is 31.3 μM to 250 μM) | L (low solubility if the threshold concentration is <31.3 04) | M (moderate solubility if the threshold concentration is 31.3 μM to 250 μM) | L (low solubility if the threshold concentration is <31.3 04)
7 | Cc1cnc2[nH]cc(C(=O)c3c(F)ccc(NS(=O)(=O)c4cccnc4)c3F)c2c1 [P-2069, Pyridine-3-sulfonic acid [2,4-difluoro-3-(5-methyl-1H-pyrrolo[2,3-b]pyridine-3-carbonyl)-phenyl]-amide] | < 100 nM | < 10 nM | < 5000 nM | 29% | H (high solubility if the threshold concentration is >250 μM) | M (moderate solubility if the threshold concentration is 31.3 μM to 250 μM) | M (moderate solubility if the threshold concentration is 31.3 μM to 250 μM) | H (high solubility if the threshold concentration is >250 μM)
8 | COc1cnc2[nH]cc(C(=O)c3c(F)ccc(NS(=O)(=O)c4ccccc4F)c3F)c2c1 [P-2009, N-[2,4-Difluoro-3-(5-methoxy-1H-pyrrolo[2,3-b]pyridine-3-carbonyl)-phenyl]-2-fluoro-benzenesulfonamide] | < 10 nM | < 100 nM | > 10000 nM | – | M (moderate solubility if the threshold concentration is 31.3 μM to 250 μM) | L (low solubility if the threshold concentration is <31.3 04) | L (low solubility if the threshold concentration is <31.3 04) | L (low solubility if the threshold concentration is <31.3 04)
9 | COc1ccnc2[nH]cc(C(=O)c3c(F)ccc(NS(=O)(=O)c4ccccc4F)c3F)c12 [P-2021, N-[2,4-Difluoro-3-(4-methoxy-1H-pyrrolo[2,3-b]pyridine-3-carbonyl)-phenyl]-2-fluoro-benzenesulfonamide] | – | < 100 nM | > 10000 nM | 35% | M (moderate solubility if the threshold concentration is 31.3 μM to 250 μM) | M (moderate solubility if the threshold concentration is 31.3 μM to 250 μM) | M (moderate solubility if the threshold concentration is 31.3 μM to 250 μM) | H (high solubility if the threshold concentration is >250 μM)
10 | N#Cc1ccnc2[nH]cc(C(=O)c3c(F)ccc(NS(=O)(=O)c4ccccc4F)c3F)c12 [P-2020, N-[3-(4-Cyano-1H-pyrrolo[2,3-b]pyridine-3-carbonyl)-2,4-difluoro-phenyl]-2-fluoro-benzenesulfonamide] | < 10 nM | < 10 nM | > 10000 nM | – | M (moderate solubility if the threshold concentration is 31.3 μM to 250 μM) | M (moderate solubility if the threshold concentration is 31.3 μM to 250 μM) | M (moderate solubility if the threshold concentration is 31.3 μM to 250 μM) | M (moderate solubility if the threshold concentration is 31.3 μM to 250 μM)
